Values of other authors in patent publication US20110230549A1, “PHARMACEUTICAL COMPOSITIONS FOR THE TREATMENT OF PAIN” (GW Pharma Limited, priority 2005, published 2011).

Key:
[1] = test system: PBQ-induced writhing in mice; settings: compared among cannabinoids and pre-cursors
[2] = test system: patient with familial Mediterranean fever; settings: 50 mg

SMILES	Inhibition of PBQ-induced writhing in mice ([1]; oral administration)	Effectiveness at reducing analgesia and inflammation [1]	Amount of analgesia that the patient required [2]
C=C(C)[C@@H]1CCC(C)=C[C@H]1c1c(O)cc(CCCCC)cc1O [CBD, cannabidiol]	most effective		
CCCCCc1cc(O)c2c(c1)OC(C)(C)c1ccc(C)cc1-2 [CBN]		least effective	
CCCCCc1cc(O)c2c(c1)OC(C)(C)[C@@H]1CCC(C)=C[C@@H]21 [THC, delta-9-tetrahydrocannabinol]		least effective	highly significant reduction
